Values quoted from earlier work as cited in patent US20190000795A1, “Methods of using cannabinoids and/or molecular similars for modulating, waking-up and/or disabling cellular functions involved in causing disease -- reinvigorating metabolism with anandamide, 2-arachidonoylglycerol and similarly acting compounds” (priority 2017, published 2019).
Read-outs that look alike come from different tables or passages of the source.

Assays:
GPR55 = GPR55 (Homo sapiens, UniProt Q9Y2T6)
mitochondrion [1] = tested on: mitochondrion
mitochondrion [2] = tested on: mitochondrion; remark: listed apart in the source
Complex 1 = details: for Complex 1 activity, rapid and transient increase: below threshold around 10 μM

Sequence of GPR55 (Q9Y2T6 whole entry, species assumed): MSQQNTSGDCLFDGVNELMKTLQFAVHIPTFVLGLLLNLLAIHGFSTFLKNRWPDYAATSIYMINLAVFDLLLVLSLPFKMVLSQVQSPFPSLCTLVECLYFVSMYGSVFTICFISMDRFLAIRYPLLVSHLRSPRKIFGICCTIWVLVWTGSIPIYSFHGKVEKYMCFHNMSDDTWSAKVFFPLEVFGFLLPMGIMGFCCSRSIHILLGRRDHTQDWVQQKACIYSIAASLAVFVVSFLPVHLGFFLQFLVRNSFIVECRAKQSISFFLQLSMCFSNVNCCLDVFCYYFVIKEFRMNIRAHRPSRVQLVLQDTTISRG

SMILES | GPR55 Ca2+ flux activation (GPR55) | O2 consumption at the mitochondrion (mitochondrion [2]) | other results
CCCCC/C=C\C/C=C\C/C=C\C/C=C\CCCC(=O)OC(CO)CO [2AG, 2-arachidonoylglycerol] | not |  | 
CCCCC/C=C\C/C=C\C/C=C\C/C=C\CCCC(=O)NCCO [AEA, N-arachidonoylethanolamine] | Ca^2+ flux activation | decrease | effect on H2O2 production (mitochondrion [1]): no effect; concentration range of steady logarithmic decline of Complex 1 activity (Complex 1): 5-200 μM
CCCCCCC(C)(C)c1ccc([C@@H]2C[C@H](O)CC[C@H]2CCCO)c(O)c1 [CP 55 940] | not |  | 
CCCCCCC(C)(C)c1cc(O)c2c(c1)OC(C)(C)[C@@H]1CC=C(CO)C[C@@H]21 [HU210] |  | decrease | effect on H2O2 production (mitochondrion [1]; between 2 and 10 μM): increase; threshold concentration of sudden decrease of Complex 1 activity (Complex 1): around 10 μM; Complex 1 activity, rapid and transient increase (Complex 1): 25%
CCCn1c(C)c(C(=O)c2cccc3ccccc23)c2ccccc21 [JWH015] | Ca^2+ flux activation |  | 
CCCCC/C=C\C/C=C\C/C=C\C/C=C\CCCC(=O)OCCN [O-AEA, O-arachidonoyl ethanolamine] | not |  | body temperature (mice): lowers body temperature
CCCCCCCCCCCCCCCC(=O)NCCO [PEA, palmitoylethanolamide] | not |  | 
CCCCCc1cc(O)c2c(c1)OC(C)(C)[C@@H]1CCC(C)=C[C@@H]21 [THC, delta-9 tetrahydrocannabinol] | Ca^2+ flux activation | decrease | effect on H2O2 production (mitochondrion [1]; between 2 and 10 μM): increase; Complex 2/3 inhibition, course of effect (Complex 2/3): more steady logarithmic concentration dependent effect; threshold concentration of sudden decrease of Complex 1 activity (Complex 1): around 10 μM; Complex 1 activity, rapid and transient increase (Complex 1): 50%
CCCCC/C=C\C/C=C\C/C=C\C/C=C\CCCC(=O)N[C@H](C)CO [methanandamide] | Ca^2+ flux activation |  | 
